Experiments:
Assay in all cases: relative viability (nuclei count vs DMSO), 5 days (fraction); higher = more cells survive
Linifanib = compound: Cc1ccc(F)c(NC(=O)Nc2ccc(-c3cccc4[nH]nc(N)c34)cc2)c1 [Linifanib]
In short: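 Nuclei counted with MetaXpress define viability as the ratio of treated to vehicle wells, given as a median across plates. The lung cancer cell lines were in 1536-well plates, pinned with five √10-spaced library-drug doses and imaged at 4× after 5 days and Hoechst staining. Plates passed with control CV below 25% and at least one doubling.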

Linifanib + Linsitinib = compound: Cc1ccc(F)c(NC(=O)Nc2ccc(-c3cccc4[nH]nc(N)c34)cc2)c1 [Linifanib] + C[C@]1(O)C[C@@H](c2nc(-c3ccc4ccc(-c5ccccc5)nc4c3)c3c(N)nccn32)C1 [Linsitinib] (partner 1 µM)
In short: (§1)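 Lung cancer cell lines in 1536-well plates got either a single drug or a fixed anchor-drug dose together with five library-drug doses (not always all listed) in √10 steps, by pin tool, on the day after seeding. Nuclei were counted after 5 days, and relative viability is the treated-to-vehicle ratio of nuclei counts. Values are medians of duplicate plates.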

Linifanib + Decitabine = compound: Cc1ccc(F)c(NC(=O)Nc2ccc(-c3cccc4[nH]nc(N)c34)cc2)c1 [Linifanib] + Nc1ncn([C@H]2C[C@H](O)[C@@H](CO)O2)c(=O)n1 [Decitabine] (partner 2 µM)
In short: as §1

| Cell Line | relative viability (Linifanib; 0.03162 µM) | relative viability (Linifanib; 0.1 µM) | relative viability (Linifanib; 0.3162 µM) | relative viability (Linifanib + Linsitinib; first compound 0.03162 µM) | relative viability (Linifanib + Linsitinib; first compound 0.1 µM) | relative viability (Linifanib + Linsitinib; first compound 0.3162 µM) | relative viability (Linifanib + Decitabine; first compound 0.03162 µM) | relative viability (Linifanib + Decitabine; first compound 0.1 µM) | relative viability (Linifanib + Decitabine; first compound 0.3162 µM) |
| --- | --- | --- | --- | --- | --- | --- | --- | --- | --- |
| NCI-H322M | 1 | 0.939 | 0.956 | 1 | 0.865 | 0.838 | 0.732 | 0.697 | 0.77 |
| A-427 | 1.05 | 1.07 | 0.989 | 1.1 | 1.11 | 1.08 | 0.583 | 0.612 | 0.579 |
| BEN | 0.888 | 1.16 | 0.915 | 0.842 | 0.896 | 0.83 | 0.772 | 0.818 | 0.696 |
| NCI-H2087 | 1.05 | 1.19 | 0.964 | 1.14 | 1.02 | 0.764 | 0.31 | 0.248 | 0.268 |
| PC-14 | 0.999 | 1 | 0.904 | 1.01 | 1.07 | 0.922 | 0.231 | 0.252 | 0.206 |
| COR-L23 | 1.1 | 1.11 | 1 | 0.933 | 1.01 | 0.815 | 0.448 | 0.455 | 0.396 |
| NCI-H1650 | 0.965 | 0.966 | 0.89 |  |  |  | 0.482 | 0.407 | 0.37 |
| SK-LU-1 | 1.07 | 1.11 | 1.01 | 0.932 | 1.02 | 0.981 | 0.672 | 0.645 | 0.669 |
| LK-2 | 1.05 | 1.12 | 0.965 | 0.516 | 0.502 | 0.536 | 0.305 | 0.365 | 0.224 |
| NCI-H2023 | 0.972 | 1.09 | 1.02 | 0.681 | 0.676 | 0.652 | 0.228 | 0.228 | 0.203 |
| LC-2-ad | 0.996 | 0.996 | 0.88 | 0.691 | 0.851 | 0.766 | 0.759 | 0.799 | 0.836 |
| HCC-44 | 1.05 | 0.95 | 0.944 | 0.741 | 0.71 | 0.664 | 0.984 | 0.862 | 0.961 |
| LU99A | 1.02 | 1.03 | 0.853 | 0.503 | 0.551 | 0.505 | 0.932 | 1.02 | 0.824 |
| SW 900 | 0.912 | 1.02 | 0.865 |  |  |  | 0.478 | 0.515 | 0.474 |
| HARA | 0.926 | 1.04 | 0.907 | 0.991 | 0.931 | 0.939 | 0.599 | 0.61 | 0.61 |
| NCI-H838 | 0.96 | 1.06 | 0.936 | 0.973 | 1.14 | 0.901 | 0.521 | 0.472 | 0.443 |
| NCI-H647 | 1.05 | 1.05 | 0.945 | 1.13 | 1.06 | 1.07 | 0.339 | 0.368 | 0.481 |
| NCI-H1734 | 1.04 | 1.06 | 0.942 | 0.869 | 0.925 | 0.849 | 0.493 | 0.514 | 0.508 |
